Source: EP4512806A1, “MOLECULAR GLUE DEGRADERS AND USES THEREOF” (Mablink Bioscience, priority 2023, dated 2025)

Experiments:
[1] = system: NCI-N87; experiment: In vitro cytotoxicity assay (MTT); format: cell-based, human; settings: 6 days incubation
Excerpt: (§1) Human cancer cell lines used in the present project were purchased from either the American Type Culture Collection (ATCC), The Leibniz Institute DSMZ German Collection of Microorganisms and Cell Cultures GmbH (DSMZ) or the European Collection of Authenticated Cell Cultures (ECACC). For use in experiments, cells were cultivated following good and established cell culture practices, following instructions from the original ATCC/DSMZ/ECACC supplier for cell culture media & supplement, cryopreservation, and subculturing procedures. Cells were incubated under a 5% CO2 atmosphere at 37°C for no longer than 2 months.
(§2) In vitro cytotoxicity of compounds of the disclosure was assessed on several cancerous human cell lines. Cells were plated in 96-well plates at an appropriate density depending on the cell line (between 1000 and 10 000 cells/well in 100µL of appropriate culture media) and incubated at 37°C for 24 hours. Serial dilutions of the tested compound previously dissolved in culture media (50µL) were added, and incubation was carried at 37°C out for 6 days. MTT (5mg/mL in PBS, 20µL, Sigma-Aldrich) was added into the wells, and incubation was continued for 1 to 4 hours at 37°C. Culture media was then carefully removed, and well content was homogeneously dissolved with acidified isopropanol. Absorbance values were measured on a microplate reader using a wavelength of 570 nm (with a reference wavelength of 690 nm). The IC50 concentration values compared to untreated control cells were determined using inhibition dose response curve fitting (GraphPad Prism 9). Exatecan mesylate (cat#HY-13631A) and CR8 (CAS# 294646-77-8; cat#HY-18340) were purchased from MedChemExpress (China).

[2] = system: MDA-MB-231; experiment: In vitro cytotoxicity assay (MTT); format: cell-based, human; settings: 6 days incubation
Excerpt: as §1, §2

[3] = system: SKBR-3; experiment: In vitro cytotoxicity assay (MTT); format: cell-based, human; settings: 6 days incubation
Excerpt: as §1, §2

[4] = system: JIMT-1; experiment: In vitro cytotoxicity assay (MTT); format: cell-based, human; settings: 6 days incubation
Excerpt: as §1, §2

[5] = system: MDA-MB-453; experiment: In vitro cytotoxicity assay (MTT); format: cell-based, human; settings: 6 days incubation
Excerpt: as §1, §2

[6] = system: BT-474; experiment: In vitro cytotoxicity assay (MTT); format: cell-based, human; settings: 6 days incubation
Excerpt: as §1, §2

[7] = target: T1, CycK (Homo sapiens, UniProt O75909); experiment: CycK protein quantification by Western Blot in JIMT-1 cells; format: cell-based; settings: 2h treatment, 10nM
T1 construct: endogenous in cells; host or cells: JIMT-1
T1 sequence (O75909 whole entry): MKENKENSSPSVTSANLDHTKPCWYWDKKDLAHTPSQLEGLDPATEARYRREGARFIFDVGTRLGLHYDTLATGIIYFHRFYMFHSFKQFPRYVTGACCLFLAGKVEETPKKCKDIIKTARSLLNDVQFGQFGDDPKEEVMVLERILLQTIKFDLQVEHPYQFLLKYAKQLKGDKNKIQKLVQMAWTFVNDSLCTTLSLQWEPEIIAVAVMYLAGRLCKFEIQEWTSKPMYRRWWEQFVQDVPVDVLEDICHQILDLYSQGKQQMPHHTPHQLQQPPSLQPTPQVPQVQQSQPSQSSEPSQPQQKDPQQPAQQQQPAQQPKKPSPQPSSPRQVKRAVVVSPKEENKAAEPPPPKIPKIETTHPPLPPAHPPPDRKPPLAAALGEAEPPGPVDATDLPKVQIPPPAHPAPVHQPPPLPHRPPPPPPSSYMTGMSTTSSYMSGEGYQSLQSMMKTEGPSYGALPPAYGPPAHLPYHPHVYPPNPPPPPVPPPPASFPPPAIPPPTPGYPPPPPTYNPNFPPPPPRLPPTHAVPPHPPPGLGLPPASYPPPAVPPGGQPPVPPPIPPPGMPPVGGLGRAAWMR
T1 sequence (Q9NYV4 whole entry partner): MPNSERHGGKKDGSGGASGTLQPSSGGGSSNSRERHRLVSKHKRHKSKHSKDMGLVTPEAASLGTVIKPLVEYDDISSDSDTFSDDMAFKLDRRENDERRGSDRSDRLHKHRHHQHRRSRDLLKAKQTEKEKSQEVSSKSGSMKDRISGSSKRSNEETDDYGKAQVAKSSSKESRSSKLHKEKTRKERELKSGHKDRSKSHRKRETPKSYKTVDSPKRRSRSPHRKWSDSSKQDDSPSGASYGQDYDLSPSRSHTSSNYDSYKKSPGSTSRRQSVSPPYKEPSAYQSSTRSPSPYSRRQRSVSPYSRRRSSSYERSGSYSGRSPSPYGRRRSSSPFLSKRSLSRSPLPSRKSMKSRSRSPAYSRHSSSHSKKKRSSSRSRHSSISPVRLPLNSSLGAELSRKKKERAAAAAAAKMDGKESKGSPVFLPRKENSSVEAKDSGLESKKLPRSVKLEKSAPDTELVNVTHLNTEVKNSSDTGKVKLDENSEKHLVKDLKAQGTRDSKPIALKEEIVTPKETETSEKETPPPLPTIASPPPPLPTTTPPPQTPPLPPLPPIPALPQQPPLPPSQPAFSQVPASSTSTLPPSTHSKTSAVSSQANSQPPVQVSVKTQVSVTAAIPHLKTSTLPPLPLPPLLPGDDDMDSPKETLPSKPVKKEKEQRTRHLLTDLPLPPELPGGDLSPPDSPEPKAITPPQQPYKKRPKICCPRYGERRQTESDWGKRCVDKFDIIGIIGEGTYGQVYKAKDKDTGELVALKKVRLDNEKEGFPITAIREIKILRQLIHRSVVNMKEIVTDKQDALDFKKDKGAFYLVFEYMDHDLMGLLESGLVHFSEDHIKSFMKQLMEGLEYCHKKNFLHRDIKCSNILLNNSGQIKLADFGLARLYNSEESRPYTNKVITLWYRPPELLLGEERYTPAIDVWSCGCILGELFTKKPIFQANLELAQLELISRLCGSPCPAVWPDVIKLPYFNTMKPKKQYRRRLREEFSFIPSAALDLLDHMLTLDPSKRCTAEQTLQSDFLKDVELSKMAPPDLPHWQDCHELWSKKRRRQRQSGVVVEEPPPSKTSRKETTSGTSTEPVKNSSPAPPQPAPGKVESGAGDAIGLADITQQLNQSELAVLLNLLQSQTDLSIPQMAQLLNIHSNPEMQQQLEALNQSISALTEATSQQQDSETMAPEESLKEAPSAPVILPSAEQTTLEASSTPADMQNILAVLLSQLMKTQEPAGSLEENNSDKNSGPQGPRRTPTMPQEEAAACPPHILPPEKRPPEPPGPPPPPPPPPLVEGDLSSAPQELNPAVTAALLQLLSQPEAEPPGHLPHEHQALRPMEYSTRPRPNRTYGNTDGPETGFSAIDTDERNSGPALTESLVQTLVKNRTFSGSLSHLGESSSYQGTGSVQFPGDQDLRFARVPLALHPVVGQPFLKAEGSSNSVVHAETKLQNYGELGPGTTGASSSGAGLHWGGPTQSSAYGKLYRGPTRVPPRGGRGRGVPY
T1 sequence (Q16531 whole entry partner): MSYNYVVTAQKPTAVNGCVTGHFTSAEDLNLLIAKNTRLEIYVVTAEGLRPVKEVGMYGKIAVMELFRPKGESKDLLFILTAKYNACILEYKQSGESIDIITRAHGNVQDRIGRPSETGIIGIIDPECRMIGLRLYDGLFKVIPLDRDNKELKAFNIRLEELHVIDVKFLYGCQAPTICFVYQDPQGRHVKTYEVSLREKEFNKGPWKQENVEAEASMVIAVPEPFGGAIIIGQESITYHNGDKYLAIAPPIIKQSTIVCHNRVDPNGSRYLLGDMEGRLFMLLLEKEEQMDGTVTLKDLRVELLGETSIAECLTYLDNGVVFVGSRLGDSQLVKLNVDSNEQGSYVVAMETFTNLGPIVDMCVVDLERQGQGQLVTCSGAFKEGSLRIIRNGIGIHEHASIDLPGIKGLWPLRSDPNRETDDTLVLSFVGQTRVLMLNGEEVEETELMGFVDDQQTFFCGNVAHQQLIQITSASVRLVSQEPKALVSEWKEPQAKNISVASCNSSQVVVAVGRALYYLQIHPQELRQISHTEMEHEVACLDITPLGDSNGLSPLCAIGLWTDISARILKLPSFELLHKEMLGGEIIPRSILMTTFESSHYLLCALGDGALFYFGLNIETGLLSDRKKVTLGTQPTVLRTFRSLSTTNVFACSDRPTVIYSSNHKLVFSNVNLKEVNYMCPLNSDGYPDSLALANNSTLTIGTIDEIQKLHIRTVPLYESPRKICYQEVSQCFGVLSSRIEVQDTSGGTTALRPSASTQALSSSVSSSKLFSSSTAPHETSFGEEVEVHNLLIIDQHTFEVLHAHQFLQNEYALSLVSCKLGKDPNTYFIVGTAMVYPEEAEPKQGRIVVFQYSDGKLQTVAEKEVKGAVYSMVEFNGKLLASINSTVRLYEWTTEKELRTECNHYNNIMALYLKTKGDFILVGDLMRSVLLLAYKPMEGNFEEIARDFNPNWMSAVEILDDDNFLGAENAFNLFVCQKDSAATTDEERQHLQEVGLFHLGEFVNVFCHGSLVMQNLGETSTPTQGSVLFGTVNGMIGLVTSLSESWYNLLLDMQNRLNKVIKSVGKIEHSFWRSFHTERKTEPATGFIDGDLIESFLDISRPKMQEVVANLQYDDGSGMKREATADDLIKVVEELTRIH
Method: 1×10^6 JIMT-1 cells were plated in 3mL of DMEM/FBS 90:10 (v/v) in 6-well plates and incubated overnight. Cells were treated with the compound 2384 of the invention with or without the proteasome inhibitor MG-132 (MedChemExpress, Cat HY-13259) for 2h. Cells were harvested, and protein were extracted using complete RIPA buffer (RIPA buffer, 1 mM DTT, 1M NaF, 100 mM sodium orthovanadate, phosphatase inhibitor buffer and protease inhibitors) for 1 hour on ice. Lysate were centrifuged 15min at 12 000g at 4°C. and proteins were mixed with 4x Laemmli Sample Buffer (Bio-Rad), heated at 95 °C for 5 mins and separated by SDS PAGE (PROTEAN TGX Stain-Free Gels, Bio-Rad). Proteins were then transferred onto PVDF membrane (iBlot®2 PVDF stacks, Invitrogen) using the iBlot2 device (Invitrogen) and blocked with TBS buffer (Intercept® Blocking Buffer, LI-COR Biosciences). Primary antibodies were incubated overnight at 4°C and secondary antibodies (IRDye Infrared Dyes from LI-COR Biosciences) 1 hour at room temperature. Used primary antibody were: anti-CycK (cat#A301-939A, Bethyl Laboratories, dil. 1:1000) and anti-β-actin (cat#A5441, Sigma-Aldrich, dil. 1:5000). Membranes were scanned using a c500 Imaging System (Azure Biosystems) and densitometric quantification were performed using imaged software. Protein levels were normalized against β-actin.

[8] = system: JIMT-1 cells; experiment: Cell cycle arrest assessment (propidium iodide, flow cytometry); format: cell-based, human
Method: 1×10^6 JIMT-1 cells were plated in 3mL of DMEM/FBS 90:10 (v/v) in 6-well plates and incubated overnight. Cells were treated with the compound 2384 of the invention or with CR8 for 24h. Cells were then harvested and washed three times with PBS. Cells were suspended into 300µL of propidium iodide working solution (0.05mg/mL) and incubated for 45 minutes at 4°C in the dark. Analysis was performed using a BD Fortessa flow cytometer controlled by BD FACSDiva software (BD Biosciences) and data were analyzed using FlowJo software (BD Bioscience).

[9] = system: panel of human cancer cell lines; experiment: In vitro cytotoxicity assay (MTT), panel of cell lines; format: cell-based; settings: panel of human cancer cell lines, in words
Excerpt: as §1, §2

For `CC[C@H](CO)Nc1nc(NCc2ccc(-c3ccccn3)cc2)c2ncn(C(C)C)c2n1` [CR8, reference compound], the IC50 [1] was 62.2 nM, the IC50 [2] was 10.4 nM and the IC50 [3] was 30.6 nM. The IC50 [4] was 25.2 nM, the IC50 [5] was 40.3 nM and the IC50 [6] was 18.4 nM. For the same molecule, the CycK degradation [7] was “no CycK was observed”, the “cell cycle analysis (propidium iodide)” value ([8]; 24h, 50 nM) was “arrest in G2/M phase” and the “cell cycle analysis (propidium iodide)” value ([8]; 24h, 2, 5, and 10 nM) was “no impact on cell cycle”. For the same molecule, the “in vitro cytotoxic potency” value [9] was “high nanomolar range”.
